According to patent publication US20050112728A1, “Adenosylmethionine synthetase from streptomyces sp gene sequences coding the same and method for mass production for secondary metabolites including antibiotics thereof” (priority 2001, published 2005):

What was measured:
S. lividans TK23 [1] = test: Effect of externally added SAM on productivity of actinorhodin; type: cell-based, Streptomyces lividans; conditions: wild type S. lividans TK23, 1 mM commercially available SAM, FIG. 5
Description: Based on the finding that in vivo over-expressed SAM positively affects production yield of actinorhodin in S. lividans TK23, an effect of SAM on productivity of actinorhodin was investigated when commercially available SAM is added directly to culture medium containing S. lividans TK23. As such, wild type S. lividans TK23 was treated with 1 mM of commercially available SAM.

S. avermitilis = test: Effect of SAM on avermectin production (Exp. 7); type: cell-based; conditions: 1 mM SAM, incubation for 5 days, 25° C.
Description: (§1) Each Streptomyces species was incubated in its corresponding culture medium according to Table 1, and treated with 1 mM of SAM (Sigma, USA). After incubation for 5 days, antibiotic concentration was measured in each culture medium.

S. cinnamonensis = test: Effect of SAM on monensin production (Exp. 8); type: cell-based; conditions: 1 mM SAM, incubation for 5 days, 30° C.
Description: as §1

S. spectabilis = test: Effect of SAM on spectinomycin production (Exp. 9); type: cell-based; conditions: 1 mM SAM, incubation for 5 days, 30° C.
Description: as §1

S. peucetius = test: Effect of SAM on doxorubicin production (Exp. 10); type: cell-based; conditions: 1 mM SAM, incubation for 5 days, 30° C.
Description: as §1

S. griseus = test: Effect of SAM on streptomycin production (Exp. 11); type: cell-based; conditions: 1 mM SAM, incubation for 5 days, 30° C.
Description: as §1

S. aureofaciens [2] = test: Effect of SAM on tetracycline production (Exp. 12); type: cell-based; conditions: 1 mM SAM, incubation for 5 days, 28° C.
Description: as §1

S. aureofaciens [3] = test: Effect of SAM on chlortetracycline production (Exp. 13); type: cell-based; conditions: 1 mM SAM, incubation for 5 days
Description: as §1

[4] = Assay for activity of SAM-s (HPLC analysis of reaction products); type: biochemical, Streptomyces spectabilis ATCC 27741; conditions: protein expressed in E. coli, 5 mM ATP, 5 mM methionine, 120 min at 30° C.
Description: In order to analyze activity of “SAM-s”, the gene encoding “SAM-s” was expressed in E. coli, and the resulting translational product, “SAM-s”, was then isolated.
To express the gene encoding “SAM-s” in E. coli, the gene was inserted into a pET-21a vector, and then introduced into E. coli BL21. The expressed gene product, “SAM-s” was isolated using a His-Tag purification system. Thereafter, 10 to 50 μl of the enzyme solution containing the protein “SAM-s” was added to a reaction mixture containing 100 mM of Tris-HCl, 200 mM of KCl, 10 mM of MgCl2, 1 mM DTT, 5 mM ATP, and 5 mM methionine, followed by incubation for 120 min at 30° C. After the incubation, reaction products were analyzed through HPLC using Reverse C18 column. In this regard, the column loaded with sample was initially equilibrated with a solution of 0.1 M of NaH2PO4/acetonitrile at a ratio of 98:2 (V/V), pH 2.65. Then, a second solution comprising 0.15 M NaH2PO4/acetonitrile at a ratio of 74:26 (V/V) was applied with continuous mixing with the first solution, forming a concentration gradient.

S. lividans TK23 [5] = test: Actinorhodin production in S. lividans TK23 transformed with pSAM-s; type: cell-based, Streptomyces lividans; conditions: over-expression of SAM-s, incubation for 7 days at 28° C., FIG. 4
Description: The gene encoding “SAM-s” was first inserted into pWHM3, which is a shuttle vector between E. coli and Streptomyces species, giving an expression vector pSAM-s. The plasmid pSAM-s was then introduced into S. lividans TK23. The resulting transformant, Streptomyces lividans TK-23 harboring pSAM-s, was deposited in the Korean Culture Center of Microorganisms with accession No. KCCM 10397 on Jul. 2, 2002. The transformant was incubated in one liter of a medium including 50 g of glycerol, 5 g of glutamic acid, 21 g of morpholinopropane sulfonic acid, 200 mg of MgSO47H2O, 100 mg of CaCl22H2O, 100 mg NaCi, 82 mg KH2PO4, 9 mg FeSO47H2O, and 2 ml of trace element solution, adjusted to pH 6.5. During incubation for 7 days at 28° C., production yield of actinorhodin, which is a main antibiotic produced from S. lividans TK23, was analyzed.

Row | Molecule | actinorhodin production versus control not treated with SAM (S. lividans TK23 [1]) | Production amount of a treatment group, Avermectin (S. avermitilis) | Production amount of a treatment group, Monensin (S. cinnamonensis) | Production amount of a treatment group, Spectinomycin (S. spectabilis) | Production amount of a treatment group, Doxorubicin (S. peucetius) | Production amount of a treatment group, Streptomycin (S. griseus) | Production amount of a treatment group, Tetracycline (S. aureofaciens [2]) | Production amount of a treatment group, Chlortetracycline (S. aureofaciens [3]) | activity to synthesize SAM [4] | production of actinorhodin in the transformant in comparison with wild type S. lividans (S. lividans TK23 [5])
1 | C[S+](CC[C@H](N)C(=O)O)C[C@H]1O[C@@H](n2cnc3c(N)ncnc32)[C@H](O)[C@@H]1O (stereo partly drawn) [SAM, S-adenosyl-L-methionine] | produces more actinorhodin | 25 µg/mL | 180 µg/mL | 35 µg/mL | 300 µg/mL | 602 µg/mL | 188 µg/mL | 130 µg/mL | – | –
2 | SAM-s: enzyme catalyzing SAM biosynthesis from Streptomyces spectabilis ATCC 27741, SEQ ID NO. 2 (protein, Steptomyces spectabilis ATCC 27741) MSRRLFTSESVTEGHPDKIADQISDTILDALLREDPTSRVAVETLITTGLVHVAGEVTTKAYAPIAQLVREKILEIGYDSSKKGFDGASCGVSVSIGAQSPDIAQGVDTAYESRVEGDEDELDRQGAGDQGLMFGYACDETPELMPLPIHLAHRLSRRLSEVRKNGTIPYLRPDGKTQVTIEYDGDKAVRLDTVVVSSQHASDIDLESLLAPDIREFVVEPELKALVEDGIKLVVEPELKALVEDGIKLETEGYRLLVNPTGRFEIGGPMGDAGLTGRKIIIDTYGGMSRHGGGAFSGKDPSKVDRSAAYAMRWVAKNVVAAGLASRCEVQVAYAIGKAEPVGLFVETFGTNTIDTDKIEQAISEVFDLRPAAIIRSLDLLRPIYSQTAAYGHFGRSLPEFTWEKTDRVDALRKAAGLES | – | – | – | – | – | – | – | – | has an activity to synthesize SAM | over six times
